Read-outs that look alike come from different tables or passages of the source.
Experiments:
Assay type in all cases: biochemical
mALDH1a2 = mALDH1a2 (Mus musculus (Mouse), UniProt Q62148); assay: Aldh1a2 enzyme inhibition assay (recombinant enzyme, resorufin fluorescence)
Text: Recombinant enzyme and inhibitor added immediately before assay. Reaction rate measured by resorufin fluorescence.

hALDH1a2 = hALDH1a2 (Homo sapiens (Human), UniProt O94788); assay: as above
hALDH1a3 = hALDH1a3 (Homo sapiens (Human), UniProt P47895); assay: Aldh1a3 enzyme inhibition assay (recombinant enzyme, resorufin fluorescence)
Sequence of hALDH1a3 (P47895 whole entry): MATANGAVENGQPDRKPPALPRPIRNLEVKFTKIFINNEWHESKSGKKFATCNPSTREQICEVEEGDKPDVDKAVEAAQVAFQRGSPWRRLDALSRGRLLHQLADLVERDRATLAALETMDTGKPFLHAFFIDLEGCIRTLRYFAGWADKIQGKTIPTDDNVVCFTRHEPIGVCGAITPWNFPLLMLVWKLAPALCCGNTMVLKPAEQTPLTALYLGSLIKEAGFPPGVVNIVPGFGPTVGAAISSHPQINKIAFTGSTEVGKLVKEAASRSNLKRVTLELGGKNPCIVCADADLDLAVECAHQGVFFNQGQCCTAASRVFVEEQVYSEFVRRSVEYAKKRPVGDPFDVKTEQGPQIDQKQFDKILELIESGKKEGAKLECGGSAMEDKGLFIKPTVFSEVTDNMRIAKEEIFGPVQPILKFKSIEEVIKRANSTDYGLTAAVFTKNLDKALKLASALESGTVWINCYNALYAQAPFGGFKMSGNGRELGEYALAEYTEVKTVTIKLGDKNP
Method: (§1) Cells were resuspended in 10 mM […] pH 7.4, 10 mM KCl. […] Recombinant enzyme and inhibitor added immediately before assay. Reaction rate measured by resorufin fluorescence.

mALDH1a3 = mALDH1a3 (Mus musculus (Mouse), UniProt Q9JHW9); assay: as above
Sequence of mALDH1a3 (Q9JHW9 whole entry): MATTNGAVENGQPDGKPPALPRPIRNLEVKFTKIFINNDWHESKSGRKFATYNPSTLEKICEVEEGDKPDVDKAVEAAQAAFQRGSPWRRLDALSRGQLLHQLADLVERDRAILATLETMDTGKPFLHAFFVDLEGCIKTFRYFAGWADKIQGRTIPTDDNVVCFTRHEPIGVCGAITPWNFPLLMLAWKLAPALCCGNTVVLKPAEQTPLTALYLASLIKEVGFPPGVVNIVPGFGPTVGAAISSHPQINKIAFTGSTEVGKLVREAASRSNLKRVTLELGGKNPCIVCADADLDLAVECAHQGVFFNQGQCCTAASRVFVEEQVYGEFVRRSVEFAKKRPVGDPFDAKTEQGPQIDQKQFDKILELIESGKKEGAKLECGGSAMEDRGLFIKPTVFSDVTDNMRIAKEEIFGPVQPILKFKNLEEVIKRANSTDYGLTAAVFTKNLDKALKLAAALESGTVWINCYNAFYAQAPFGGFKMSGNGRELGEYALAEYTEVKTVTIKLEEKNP
Method: as §1

Sequence of hALDH1a2 (O94788 whole entry): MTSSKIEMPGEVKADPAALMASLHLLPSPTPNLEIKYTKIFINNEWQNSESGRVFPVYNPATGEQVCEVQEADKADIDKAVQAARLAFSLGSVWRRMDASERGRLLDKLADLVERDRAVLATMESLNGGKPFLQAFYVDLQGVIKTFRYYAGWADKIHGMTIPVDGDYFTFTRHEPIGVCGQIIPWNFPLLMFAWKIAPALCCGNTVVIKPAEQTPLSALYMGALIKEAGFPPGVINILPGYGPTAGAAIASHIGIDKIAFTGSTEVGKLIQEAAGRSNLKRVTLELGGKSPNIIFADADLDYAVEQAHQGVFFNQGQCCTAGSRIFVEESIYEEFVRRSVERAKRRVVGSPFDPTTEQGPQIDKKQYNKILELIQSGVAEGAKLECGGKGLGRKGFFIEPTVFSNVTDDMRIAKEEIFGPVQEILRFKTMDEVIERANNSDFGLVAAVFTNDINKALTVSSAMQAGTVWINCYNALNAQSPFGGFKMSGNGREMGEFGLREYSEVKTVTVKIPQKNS
Sequence of mALDH1a2 (Q62148 whole entry): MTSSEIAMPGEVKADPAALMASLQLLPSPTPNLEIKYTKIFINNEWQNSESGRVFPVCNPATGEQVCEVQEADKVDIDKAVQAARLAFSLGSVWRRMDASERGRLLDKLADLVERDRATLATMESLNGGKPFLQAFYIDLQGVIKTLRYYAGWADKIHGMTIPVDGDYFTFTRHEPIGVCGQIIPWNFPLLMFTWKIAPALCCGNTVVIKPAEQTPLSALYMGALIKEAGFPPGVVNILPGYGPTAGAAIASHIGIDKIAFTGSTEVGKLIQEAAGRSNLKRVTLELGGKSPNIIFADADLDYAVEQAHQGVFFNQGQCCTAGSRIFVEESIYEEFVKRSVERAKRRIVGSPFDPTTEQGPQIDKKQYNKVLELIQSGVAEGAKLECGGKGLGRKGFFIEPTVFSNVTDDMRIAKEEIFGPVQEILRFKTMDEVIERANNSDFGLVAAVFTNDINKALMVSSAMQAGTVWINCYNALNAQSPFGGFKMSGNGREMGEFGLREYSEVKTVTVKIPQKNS

Molecule: 2-ethyl-N-(8-methyl-2-oxo-3,4-dihydro-1H-quinolin-6-yl) piperazine-1-carboxamide [Compound 192]
- IC50 (mALDH1a2): > 10000 nM
- IC50 (hALDH1a2): > 10000 nM
- IC50 (hALDH1a3; read-out: hAldh1a3 IC50): > 5000 nM
- IC50 (mALDH1a3; read-out: mAldh1a3 IC50): > 5000 nM

Molecule: CCC1COCCN1C(=O)Nc1cc(C)c2c(c1)CCC(=O)N2 (racemic) [Compound 193]
- IC50 (hALDH1a3; read-out: hAldh1a3 IC50): > 5000 nM
- IC50 (mALDH1a3; read-out: mAldh1a3 IC50): > 5000 nM

Molecule: CCc1cnccc1C(=O)Nc1cc2c(cc1F)NC(=O)CC2 [Compound 1]
- IC50 (mALDH1a2): 3330 nM
- IC50 (hALDH1a2): 3330 nM
- IC50 (hALDH1a3): 100 to 250 nM
- IC50 (mALDH1a3): 100 to 250 nM

Molecule: CCc1cnccc1C(=O)Nc1ccc2c(c1)CCC(=O)N2 [Compound 9]
- IC50 (mALDH1a2): 1110 nM
- IC50 (hALDH1a2): 587 nM
- IC50 (hALDH1a3; read-out: hAldh1a3 IC50): < 100 nM
- IC50 (mALDH1a3; read-out: mAldh1a3 IC50): 250 to 1000 nM

Molecule: CCn1cncc1C(=O)Nc1ccc2c(c1)CCC(=O)N2 [Compound 49]
- IC50 (mALDH1a2): > 10000 nM
- IC50 (hALDH1a2): > 10000 nM
- IC50 (hALDH1a3; read-out: hAldh1a3 IC50): > 5000 nM
- IC50 (mALDH1a3; read-out: mAldh1a3 IC50): > 5000 nM

Molecule: O=C1CCc2cc(NC(=O)c3ccncc3CC(F)(F)F)ccc2N1 [Compound 53]
- IC50 (mALDH1a2): 494 nM
- IC50 (hALDH1a2): 374 nM
- IC50 (hALDH1a3; read-out: hAldh1a3 IC50): < 100 nM
- IC50 (mALDH1a3; read-out: mAldh1a3 IC50): < 100 nM

Molecule: O=C1CCc2cc(NC(=O)c3ccncc3CC3CC3)ccc2N1 [Compound 59]
- IC50 (mALDH1a2): 487 nM
- IC50 (hALDH1a2): 530 nM
- IC50 (hALDH1a3; read-out: hAldh1a3 IC50): < 100 nM
- IC50 (mALDH1a3; read-out: mAldh1a3 IC50): < 100 nM

Molecule: CCc1cnc(Cl)cc1C(=O)Nc1ccc2c(c1)CCC(=O)N2 [Compound 77]
- IC50 (mALDH1a2): 333 nM
- IC50 (hALDH1a2): 415 nM

Molecule: O=C1CCc2cc(NC(=O)c3ccncc3CC(F)(F)F)c(F)cc2N1 [Compound 82]
- IC50 (mALDH1a2): 941 nM
- IC50 (hALDH1a2): 620 nM
- IC50 (hALDH1a3; read-out: hAldh1a3 IC50): < 100 nM
- IC50 (mALDH1a3; read-out: mAldh1a3 IC50): 100 to 250 nM

Molecule: CCc1cnccc1C(=O)Nc1cc2c(cc1C)NC(=O)CC2 [Compound 83]
- IC50 (mALDH1a2): 3500 nM
- IC50 (hALDH1a2): 9000 nM
- IC50 (hALDH1a3; read-out: hAldh1a3 IC50): 100 to 250 nM
- IC50 (mALDH1a3; read-out: mAldh1a3 IC50): 1000 to 5000 nM

Molecule: CCc1cnccc1C(=O)Nc1cc(C#N)c2c(c1)CCC(=O)N2 [Compound 139, N-(8-cyano-2-oxo-3,4-dihydro-1H-quinolin-6-yl)-3-ethyl-pyridine-4-carboxamide]
- IC50 (mALDH1a2): 1480 nM
- IC50 (hALDH1a2): 10000 nM
- IC50 (hALDH1a3; read-out: hAldh1a3 IC50): 100 to 250 nM
- IC50 (mALDH1a3; read-out: mAldh1a3 IC50): < 100 nM

Molecule: CCc1cnccc1C(=O)Nc1cc(F)c2c(c1)CCC(=O)N2 [Compound 141, 3-ethyl-N-(8-fluoro-2-oxo-3,4-dihydro-1H-quinolin-6-yl)pyridine-4-carboxamide]
- IC50 (mALDH1a2): 180 nM
- IC50 (hALDH1a2): 289 nM
- IC50 (hALDH1a3; read-out: hAldh1a3 IC50): < 100 nM
- IC50 (mALDH1a3; read-out: mAldh1a3 IC50): < 100 nM

Molecule: CCc1cnccc1C(=O)Nc1cc(Cl)c2c(c1)CCC(=O)N2 [Compound 142, N-(8-chloro-2-oxo-3,4-dihydro-1H-quinolin-6-yl)-3-ethyl-pyridine-4-carboxamide]
- IC50 (mALDH1a2): 63 nM
- IC50 (hALDH1a2): 57 nM
- IC50 (hALDH1a3; read-out: hAldh1a3 IC50): < 100 nM
- IC50 (mALDH1a3; read-out: mAldh1a3 IC50): < 100 nM

Molecule: CCc1cnccc1C(=O)Nc1cc2c(c(F)c1F)NC(=O)CC2 [Compound 143, N-(7,8-difluoro-2-oxo-3,4-dihydro-1H-quinolin-6-yl)-3-ethyl-pyridine-4-carboxamide]
- IC50 (mALDH1a2): 594 nM
- IC50 (hALDH1a2): 674 nM
- IC50 (hALDH1a3; read-out: hAldh1a3 IC50): < 100 nM
- IC50 (mALDH1a3; read-out: mAldh1a3 IC50): < 100 nM

Molecule: CCc1cnccc1C(=O)Nc1cc(CC)c2c(c1)CCC(=O)N2 [Compound 144, 3-ethyl-N-(8-ethyl-2-oxo-3,4-dihydro-1H-quinolin-6-yl)pyridine-4-carboxamide]
- IC50 (mALDH1a2): 462 nM
- IC50 (hALDH1a2): 304 nM
- IC50 (hALDH1a3; read-out: hAldh1a3 IC50): < 100 nM
- IC50 (mALDH1a3; read-out: mAldh1a3 IC50): < 100 nM

Molecule: Cc1cc(NC(=O)c2ccncc2CC2CC2)cc2c1NC(=O)CC2 [Compound 149, 3-(cyclopropylmethyl)-N-(8-methyl-2-oxo-3,4-dihydro-1H-quinolin-6-yl)pyridine-4-carboxamide]
- IC50 (mALDH1a2): 118 nM
- IC50 (hALDH1a3; read-out: hAldh1a3 IC50): < 100 nM
- IC50 (mALDH1a3; read-out: mAldh1a3 IC50): < 100 nM

Molecule: O=C1CCc2cc(NC(=O)c3ccncc3CC(F)(F)F)cc(Cl)c2N1 [Compound 168, N-(8-chloro-2-oxo-3,4-dihydro-1H-quinolin-6-yl)-3-(2,2,2-trifluoroethyl) pyridine-4-carboxamide]
- IC50 (mALDH1a2): 92 nM
- IC50 (hALDH1a2): 70 nM

Reference: patent publication US12054475B2, “Substituted heterocycles as aldehyde dehydrogenase inhibitors” (KayoThera Inc., priority 2021, dated 2024)
